Test system: active lesions (interdigital dermatitis or hairy warts)

O=S(=O)([O-])[O-].[Cu+2] [copper sulfate]
lesions per week, average (50 gallons water + 25 lbs copper sulfate per 400 cows, once per day, 4 days per week, 1,600 cow dairy): 22 lesions per week
lesions per week, high (same regimen, 8 week record): 36
lesions per week, low (same regimen, 8 week record): 13

Reference: US7841299B2, “Method and apparatus for applying hoof care, sanitizing, or treatment solutions to the feet or hooves of animals” (Jot Holdings, LLC, priority 2007, dated 2010)
